Data from patent publication US5789625A, “Metal-ligand complex catalyzed processes” (priority 1996, dated 1998).

Tests used:
[1] = cited from earlier work
[2] = Extraction experiment: partitioning of base from butyraldehyde to equimolar aqueous H3PO3 (Example 5, Table A); assay type: physicochemical
Description: The following series of experiments were performed in order to determine the relationship of the pKa of a base to the effectiveness of the base to remain in the organic phase upon contact with an equimolar aqueous acid solution. In all cases the experiments were performed under nitrogen, unless otherwise specified.
Solutions were prepared by dissolving a quantity of acid or base in solvent so that the final concentration was equal to 0.1 moles/liter. The 1×10^-3 moles/liter solutions were prepared by taking an aliquot of the 0.1 moles/liter solution and diluting to the specified concentration. The 1×10^-5 moles/liter solutions were prepared in the same manner as the 1×10^-3 moles/liter solution with the modification of using an aliquot of the 1×10^-3 moles/liter solution in place of the 0.1 moles/liter solution.
In each extraction experiment, 5 milliliters of base solution in butyraldehyde was added to a clean, dry vial. To this vial was added 5 milliliters of equimolar H3 PO3 solution. The resulting mixture was rapidly shaken for several minutes and then allowed to phase separate. A 1 milliliter aliquot of the aqueous layer was then transferred to a clean, dry vial. To this vial was added 1 milliliter of pH 7 sodium/potassium phosphate buffer and 0.1 milliliter of Tergitol® 15-S-9 surfactant. The solution was shaken vigorously, and an aliquot was analyzed by high performance liquid chromatography for base content. The amount of base was then compared with a dichloromethane solution at the initial concentration. The partition coefficients calculated are for partitioning of the base from the organic phase to the water phase and is defined as K=amount of base in the water phase/amount of base in the organic phase.

[3] = Stability of Ligand F in butyraldehyde solution containing rhodium, by HPLC (Examples 2-4); assay type: physicochemical; conditions: for concentration of Ligand F remaining: 0.017 grams phosphorous acid added to 12 gram solution, start 0.39; for change in concentration of Ligand F: no added acid or benzimidazole, 200 ppm rhodium, 0.39 wt% Ligand F in butyraldehyde
[4] = base 1 × 10^-3 moles/liter in butyraldehyde, H3PO3 1 × 10^-3 moles/liter
[5] = base 1 × 10^-5 moles/liter in butyraldehyde, H3PO3 1 × 10^-5 moles/liter

SMILES	pKa of base [1]	K (amount of base in the water phase/amount of base in the organic phase) [2, 4]	K (amount of base in the water phase/amount of base in the organic phase) [2, 5]	concentration of Ligand F remaining ([3]; 24 hours)	concentration of Ligand F remaining ([3]; 72 hours)	change in concentration of Ligand F ([3]; 24 hours)	change in concentration of Ligand F ([3]; 72 hours)
O=C1CCCN1Cc1ccccc1 [1-benzyl-2-pyrrolidinone]	-0.7						
CC(=O)c1cccnc1 [3-acetylpyridine]	3.3	0.93	0.00				
CC(C)(C)c1cc(-c2cc(C(C)(C)C)cc(C(C)(C)C)c2Op2oc3ccccc3c3ccccc3o2)c(Op2oc3ccccc3c3ccccc3o2)c(C(C)(C)C)c1 [Ligand F]				0.12 percent by weight	0.04 percent by weight	No change	No change
c1ccc(Cc2ccccn2)cc1 [2-benzylpyridine]		0.22	0.30				
